# Data taken from patent US10251862B2, “Cosmetic composition containing hydroxy pyranone derivative compound for promoting differentiation of adipocytes” (AMOREPACIFIC CORPORATION, priority 2014, dated 2019).
# What was measured:
# Adiponectin = assay: Measurement of expression level of adiponectin in human adipose-derived mesenchymal stem cells (ELISA); assay type: cell-based; conditions: for effect of increasing adiponectin expression (in words): 60 μM with IDX, day 14, Table 1; for Adiponectin (pg/mL, avg ± S.D.): secreted into culture medium, day 14 of differentiation, together with IDX, sample 60 μM
# Experimental: Adiponectin is a representative protein hormone secreted in adipocytes. It is reported that the expression of adiponectin is increased with the differentiation into adipocytes. Accordingly, the amount of adiponectin secreted into a cell culture medium was measured as a marker of promotion of adipocyte differentiation. In order to measure the secreted amount of adiponectin, human adipose-derived mesenchymal stem cells purchased form Lonza, Inc. were gathered on day 14 after they began to differentiate into adipocytes and the amount of adiponectin was quantified using an adiponectin ELISA kit (R&D Systems, Cat. No. DY1065) as follows (Data were normalized to that of the control group). Specifically, after reacting with a capture antibody on a 96-well plate and washing with a washing buffer, the cells were treated with a sample at a concentration of 60 μM and incubated at room temperature for 2 hours. Subsequently, the cells were incubated with a detection antibody, HRP, a substrate solution and a stop solution for the time specified in the protocol, while washing 3 times between each step. After the final incubation, absorbance was measured at 450 nm using a spectrophotometer.
# [1] = test system: Human adipose-derived mesenchymal stem cells (hAT-MSCs); assay: Inducement of differentiation of adipose-derived mesenchymal stem cells into adipocytes (Oil Red O staining); assay type: cell-based; conditions: day 14
# Text: Human adipose-derived mesenchymal stem cells (hAT-MSCs) were purchased form Lonza, Inc. (Walkersville, Md., USA) and cultured according to the instructions of Lonza, Inc. The adipose-derived mesenchymal stem cells were induced to differentiate into adipocytes according to the instructions of Lonza, Inc. except that troglitazone (TRO) was used instead of indomethacin. Specifically, the mesenchymal stem cells were differentiated into adipocytes by adding to a culture of the mesenchymal stem cells […] insulin, 1 µM dexamethasone (DEXA), 0.5 mM isobutylmethylxanthine (IBMX) and […] TRO. To a test group, the compound of Example 1 was added to the medium at a concentration of 30 μM when inducing the differentiation into adipocytes. A positive control group was treated with 30 μM glibenclamide together with IDX. On day 14 after the adipose-derived mesenchymal stem cells began to differentiate into adipocytes, the cells were washed with 10 mL of phosphate-buffered saline (PBS) and then fixed for 10 minutes using a 10% formalin/PBS solution (0.2 mL/cm^2). The fixed cells were washed once with a 60% isopropanol solution (0.5 mL/cm^2) and lipid bodies in the adipocytes were stained for 10 minutes with Oil Red O dissolved in 60% isopropanol (0.2 mL/cm^2). Then, after staining again with hematoxylin to visualize nuclei, the cells were observed under a microscope.
Structure (SMILES),effect of increasing adiponectin expression (in words) (Adiponectin),"Adiponectin (pg/mL, avg ± S.D.) (Adiponectin) [pg/mL]","differentiation into adipocytes as compared to treatment with IDX only ([1]; 30 μM added to medium when inducing differentiation, Oil Red O staining, microscope (FIG. 1))","number of the stained cells compared with glibenclamide as positive control ([1]; 30 μM, Oil Red O staining (FIG. 1))"
"O=C(/C=C/c1ccc2c(c1)OCO2)OCc1cc(=O)c(O)co1 [Example 1, (2E)-(5-hydroxy-4-oxo-4H-pyran-2-yl)methyl 3-(benzo[d][1,3]dioxo-6-yl)acrylate]",increased the expression of adiponectin,1435 ± 113,increased differentiation into adipocytes,slightly less
"O=c1cc(CO)occ1O [kojic acid, reference compound]",did not show an effect of increasing adiponectin expression,312 ± 103,,
"COc1ccc(Cl)cc1C(=O)NCCc1ccc(S(=O)(=O)NC(=O)NC2CCCCC2)cc1 [glibenclamide, reference compound]",,1832 ± 110,,
"O=C(/C=C/c1ccc2c(c1)OCCO2)OCc1cc(=O)c(O)co1 [Example 2, (2E)-(5-hydroxy-4-oxo-4H-pyran-2-yl)methyl 3-(2,3-dihydroxybenzo[b][1,4]dioxo-7-yl)acrylate]",increased the expression of adiponectin,1300 ± 140,,
